Measurements: paper PMC11336009 (GeroScience, 2024)
Where two headings read alike, the source gives them in different places.

What was measured:
[1] = Rat pharmacokinetic study: plasma and brain levels after single oral dose; assay type: in vivo; details: male, Sprague-Dawley; for concentration at 105 min: po, 10 mg/kg, mean ± SEM
Method: A blood sample was obtained and the plasma was separated (10,000 G, 60 s, 4 °C) and frozen to -80 °C. The vasculature was immediately cleared with physiological saline, and a section through the right cerebral hemisphere was obtained and flash frozen to -80 °C.

[2] = tested on: rat rotenone model of PD; details: cited from earlier work

Row | concentration at 105 min ([1]; brain, rat brain, 105 min after oral 10 mg/kg, read-out: BrFree (brain free concentration)) [nM] | concentration at 105 min ([1]; brain, rat brain, 105 min after oral 10 mg/kg, read-out: BrTotal (brain total concentration)) [nM] | Kp at 105 min ([1]; brain/plasma, 105 min after oral 10 mg/kg, read-out: Br/Pl ratio (Total)) | concentration at 105 min ([1]; plasma, rat plasma, 105 min (predicted Cmax) after oral 10 mg/kg, n = 5 to 6, read-out: PlTotal (plasma total concentration)) [nM] | concentration at 105 min ([1]; plasma, rat plasma, 105 min after oral 10 mg/kg, read-out: PlFree (plasma free concentration)) [nM] | Structure (SMILES) | Effects in rat rotenone model of PD [2]
1 | 195 ± 34.9 | 574 ± 103 | 0.62 | 922 ± 206 | 830 ± 185 | O=C([C@@H]1C[C@H](N2CCN(c3ncccn3)CC2)CN1)N1CCC(F)(F)C1 [PF-00734,200, Gosogliptin] | 
2 |  |  |  |  |  | N[C@@H](CC(=O)N1CCn2c(nnc2C(F)(F)F)C1)Cc1cc(F)c(F)cc1F [Sitagliptin] | mitigated motor deficits, striatal DA loss, SNc dopaminergic neuronal degeneration and neuroinflammation
